The values that follow are results of earlier work, collected in patent publication US6552040B1, “Use of nitroxides in wound healing and in the prevention of photodamage” (priority 1999, dated 2003).

Data set [1] deals with UVB radiation-induced mouse skin damage. As to conditions: mice, topical solution prior to UVB exposure, versus untreated mice.
The conditions of data set [2]: in vitro and in vivo.
Data set [3] deals with radiation-induced alopecia. As to conditions: field of heavily irradiated skin.
Data set [4] deals with mammalian cells.

On to `Cc1cc(C(C)(C)C)c(O)c(C(C)(C)C)c1` [BHT], for which the “protection against UVB radiation skin damage” value in data set [1] was “no significant protection”.

Turning to `O=C1O[C@H]([C@@H](O)CO)C(O)=C1O` [ascorbic acid], the “protection against UVB radiation skin damage” value in data set [1] is given as “significantly less damage”.

As for `Cc1c(C)c2c(c(C)c1O)CCC(C)(C(=O)O)O2` (stereo not shown) [Trolox], the “protection against UVB radiation skin damage” value in data set [1] is “significantly less damage”.

Take `OC[C@@H](O)[C@@H](O)[C@H](O)[C@H](O)CO` [mannitol]: the “protection against UVB radiation skin damage” value in data set [1] was “no significant protection”.

As to `C=CC(O)C(O)C=C` (stereo not shown) [divinylglycol], the “protection against UVB radiation skin damage” value in data set [1] is recorded as “no significant protection”.

In the case of `Cc1c(C)c2c(c(C)c1O)CC[C@@](C)(CCC[C@H](C)CCC[C@H](C)CCCC(C)C)O2` [alphatocopherol], in data set [1], the “protection against UVB radiation skin damage” value is given as “significantly less damage”.

As for `NC(N)=O` [urea], the “protection against UVB radiation skin damage” value in data set [1] is “no significant protection”.

With `N[C@@H](CCC(=O)N[C@@H](CS)C(=O)NCC(=O)O)C(=O)O` [glutathione], the “protection against UVB radiation skin damage” value in data set [1] is “no significant protection”.

Take `N[C@@H](Cc1c[nH]cn1)C(=O)O` [histidine]: the “protection against UVB radiation skin damage” value in data set [1] is recorded as “no significant protection”.

Regarding `CCCOC(=O)c1cc(O)c(O)c(O)c1` [propyl galate], the “protection against UVB radiation skin damage” value in data set [1] was “significantly less damage”.

For `CC1(C)CC(O)CC(C)(C)N1[O]` [Tempol, 4-hydroxy-2,2,6,6-tetramethyl-piperidinyloxy, free radical], in data set [2], the “protection against ionizing radiation” value is “both in vitro and in vivo protection”. Further, the “protection against radiation-induced alopecia” value in data set [3] is listed as “speeding the recovery of hair growth”. Besides, in data set [4], the “protection of mammalian cells from hydrogen peroxide mediated cytotoxicity” value was “protecting mammalian cells”. Besides, the “protection of mammalian cells from superoxide generated from hypoxanthine/xanthine oxidase” value in data set [4] (superoxide dismutase mimic) was “protecting mammalian cells”.

As for `CC(C)(CO)[C@@H](O)C(=O)NCCC(=O)NCCS` [pantetheine], the “protection against UVB radiation skin damage” value in data set [1] is listed as “no significant protection”.

On to `CC1=C(/C=C/C(C)=C/C=C/C(C)=C/C=C/C=C(C)/C=C/C=C(C)/C=C/C2=C(C)CCCC2(C)C)C(C)(C)CCC1` [beta-carotene], for which the “protection against UVB radiation skin damage” value in data set [1] is “no significant protection”.
